# Tests used:
# Assay in all cases: relative viability (nuclei count vs DMSO), 5 days (fraction); higher = more cells survive
# NCI-H1395 = system: NCI-H1395
# Outline: (§1)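 Medians of duplicate plates are given as relative viability. That measure is the nuclei count in treated wells divided by the count in vehicle wells. Counts were taken on 4× images of lung cancer cell lines in 1536-well plates, 5 days after pin-tool dosing the day after seeding with one drug alone or a fixed anchor-drug dose plus five library-drug doses (not always all listed) in √10 steps.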
# NCI-H3122 = system: NCI-H3122
# Outline: as §1
# LOU-NH91 = system: LOU-NH91
# Outline: as §1
# NCI-H2009 = system: NCI-H2009
# Outline: as §1
# NCI-H1993 = system: NCI-H1993
# Outline: as §1
# NCI-H2087 = system: NCI-H2087
# Outline: as §1
# NCI-H596 = system: NCI-H596
# Outline: as §1
# NCI-H23 = system: NCI-H23
# Outline: as §1
# NCI-H838 = system: NCI-H838
# Outline: as §1
# HCC-44 = system: HCC-44
# Outline: as §1
# NCI-H727 = system: NCI-H727
# Outline: as §1
# NCI-H647 = system: NCI-H647
# Outline: as §1
# 201T = system: 201T
# Outline: as §1
# NCI-H2347 = system: NCI-H2347
# Outline: as §1
# NCI-H522 = system: NCI-H522
# Outline: as §1
# HARA = system: HARA
# Outline: as §1
# BEN = system: BEN
# Outline: as §1
# EMC-BAC-2 = system: EMC-BAC-2
# Outline: as §1
# NCI-H441 = system: NCI-H441
# Outline: as §1
# NCI-H2023 = system: NCI-H2023
# Outline: as §1
# LCLC-103H = system: LCLC-103H
# Outline: as §1
# NCI-H650 = system: NCI-H650
# Outline: as §1
# NCI-H1666 = system: NCI-H1666
# Outline: as §1
# NCI-H2126 = system: NCI-H2126
# Outline: as §1
compound,measurement,setting,value
C[C@@H]1CN(CC(=O)Nc2ccc3c(c2)Cc2cccc(-c4cc(=O)cc(N5CCOCC5)o4)c2S3)C[C@H](C)O1 + O=C(c1cc(Cc2n[nH]c(=O)c3ccccc23)ccc1F)N1CCN(C(=O)C2CC2)CC1 [Olaparib] (partner 8 µM),relative viability,NCI-H1395; first compound 0.1265 µM,0.482
same,relative viability,NCI-H1395; first compound 0.4 µM,0.506
same,relative viability,NCI-H1395; first compound 4 µM,0.458
same,relative viability,NCI-H3122; first compound 0.04 µM,0.607
same,relative viability,NCI-H3122; first compound 0.1265 µM,0.591
same,relative viability,NCI-H3122; first compound 0.4 µM,0.645
same,relative viability,NCI-H3122; first compound 4 µM,0.518
same,relative viability,LOU-NH91; first compound 0.04 µM,0.938
same,relative viability,LOU-NH91; first compound 0.1265 µM,0.964
same,relative viability,LOU-NH91; first compound 0.4 µM,0.907
same,relative viability,LOU-NH91; first compound 4 µM,0.721
same,relative viability,NCI-H2009; first compound 0.04 µM,0.71
same,relative viability,NCI-H2009; first compound 0.1265 µM,0.691
same,relative viability,NCI-H2009; first compound 0.4 µM,0.649
same,relative viability,NCI-H2009; first compound 4 µM,0.274
same,relative viability,NCI-H1993; first compound 0.04 µM,1.06
same,relative viability,NCI-H1993; first compound 0.1265 µM,0.963
same,relative viability,NCI-H1993; first compound 0.4 µM,0.942
same,relative viability,NCI-H1993; first compound 4 µM,0.81
same,relative viability,NCI-H2087; first compound 0.04 µM,0.649
same,relative viability,NCI-H2087; first compound 0.1265 µM,0.546
same,relative viability,NCI-H2087; first compound 0.4 µM,0.602
same,relative viability,NCI-H2087; first compound 4 µM,0.214
same,relative viability,NCI-H596; first compound 0.04 µM,0.601
same,relative viability,NCI-H596; first compound 0.1265 µM,0.624
same,relative viability,NCI-H596; first compound 0.4 µM,0.641
same,relative viability,NCI-H596; first compound 4 µM,0.486
same,relative viability,NCI-H23; first compound 0.04 µM,0.352
same,relative viability,NCI-H23; first compound 0.1265 µM,0.317
same,relative viability,NCI-H23; first compound 0.4 µM,0.264
same,relative viability,NCI-H23; first compound 4 µM,0.227
same,relative viability,NCI-H838; first compound 0.04 µM,0.746
same,relative viability,NCI-H838; first compound 0.1265 µM,0.685
same,relative viability,NCI-H838; first compound 0.4 µM,0.739
same,relative viability,NCI-H838; first compound 4 µM,0.323
same,relative viability,HCC-44; first compound 0.04 µM,0.94
same,relative viability,HCC-44; first compound 0.1265 µM,1.02
same,relative viability,HCC-44; first compound 0.4 µM,0.955
same,relative viability,HCC-44; first compound 4 µM,0.969
same,relative viability,NCI-H727; first compound 0.04 µM,0.831
same,relative viability,NCI-H727; first compound 0.1265 µM,0.77
same,relative viability,NCI-H727; first compound 0.4 µM,0.835
same,relative viability,NCI-H727; first compound 4 µM,0.64
same,relative viability,NCI-H647; first compound 0.04 µM,0.611
same,relative viability,NCI-H647; first compound 0.1265 µM,0.436
same,relative viability,NCI-H647; first compound 0.4 µM,0.417
same,relative viability,NCI-H647; first compound 4 µM,0.0936
same,relative viability,201T; first compound 0.04 µM,0.839
same,relative viability,201T; first compound 0.1265 µM,0.816
same,relative viability,201T; first compound 0.4 µM,0.793
same,relative viability,201T; first compound 4 µM,0.783
same,relative viability,NCI-H2347; first compound 0.04 µM,0.636
same,relative viability,NCI-H2347; first compound 0.1265 µM,0.545
same,relative viability,NCI-H2347; first compound 0.4 µM,0.57
same,relative viability,NCI-H2347; first compound 4 µM,0.448
same,relative viability,NCI-H522; first compound 0.04 µM,0.612
same,relative viability,NCI-H522; first compound 0.1265 µM,0.667
same,relative viability,NCI-H522; first compound 0.4 µM,0.576
same,relative viability,NCI-H522; first compound 4 µM,0.614
same,relative viability,HARA; first compound 0.04 µM,0.932
same,relative viability,HARA; first compound 0.1265 µM,0.779
same,relative viability,HARA; first compound 0.4 µM,0.87
same,relative viability,HARA; first compound 4 µM,0.22
same,relative viability,BEN; first compound 0.04 µM,0.969
same,relative viability,BEN; first compound 0.1265 µM,1.13
same,relative viability,BEN; first compound 0.4 µM,1.11
same,relative viability,BEN; first compound 4 µM,0.69
same,relative viability,EMC-BAC-2; first compound 0.04 µM,0.512
same,relative viability,EMC-BAC-2; first compound 0.1265 µM,0.579
same,relative viability,EMC-BAC-2; first compound 0.4 µM,0.513
same,relative viability,EMC-BAC-2; first compound 4 µM,0.263
same,relative viability,NCI-H441; first compound 0.04 µM,0.636
same,relative viability,NCI-H441; first compound 0.1265 µM,0.551
same,relative viability,NCI-H441; first compound 0.4 µM,0.507
same,relative viability,NCI-H441; first compound 4 µM,0.141
same,relative viability,NCI-H2023; first compound 0.04 µM,0.441
same,relative viability,NCI-H2023; first compound 0.1265 µM,0.371
same,relative viability,NCI-H2023; first compound 0.4 µM,0.329
same,relative viability,NCI-H2023; first compound 4 µM,0.148
same,relative viability,LCLC-103H; first compound 0.04 µM,0.71
same,relative viability,LCLC-103H; first compound 0.1265 µM,0.739
same,relative viability,LCLC-103H; first compound 0.4 µM,0.771
same,relative viability,LCLC-103H; first compound 4 µM,0.722
same,relative viability,NCI-H650; first compound 0.04 µM,0.436
same,relative viability,NCI-H650; first compound 0.1265 µM,0.48
same,relative viability,NCI-H650; first compound 0.4 µM,0.438
same,relative viability,NCI-H650; first compound 4 µM,0.258
same,relative viability,NCI-H1666; first compound 0.04 µM,0.713
same,relative viability,NCI-H1666; first compound 0.1265 µM,0.767
same,relative viability,NCI-H1666; first compound 0.4 µM,0.659
same,relative viability,NCI-H1666; first compound 4 µM,0.468
same,relative viability,NCI-H2126; first compound 0.04 µM,0.928
same,relative viability,NCI-H2126; first compound 0.1265 µM,0.873
same,relative viability,NCI-H2126; first compound 0.4 µM,0.95
same,relative viability,NCI-H2126; first compound 4 µM,0.928

# — the supplement of paper PMC10307832
